Source: US20130252983A1, “ACTIVATING PHOSPHORYLATION SITE ON GLUTAMINASE C” (CORNELL UNIVERSITY, priority 2010, published 2013)

Legend:
GAC (S103A) = target: T1, GAC (S103A) (Mus musculus, UniProt D3Z7P3, S103A); experiment: Glutaminase activity of immunoprecipitated GAC (S103A) from treated Dbl-transformed cells; type: cell-based; settings: 10 μM, 48 hours
T1 construct: expressed in transfected cells; host or cells: Dbl-transformed NIH 3T3 cells
T1 sequence (D3Z7P3 55-603 isoform D3Z7P3-2 S103A): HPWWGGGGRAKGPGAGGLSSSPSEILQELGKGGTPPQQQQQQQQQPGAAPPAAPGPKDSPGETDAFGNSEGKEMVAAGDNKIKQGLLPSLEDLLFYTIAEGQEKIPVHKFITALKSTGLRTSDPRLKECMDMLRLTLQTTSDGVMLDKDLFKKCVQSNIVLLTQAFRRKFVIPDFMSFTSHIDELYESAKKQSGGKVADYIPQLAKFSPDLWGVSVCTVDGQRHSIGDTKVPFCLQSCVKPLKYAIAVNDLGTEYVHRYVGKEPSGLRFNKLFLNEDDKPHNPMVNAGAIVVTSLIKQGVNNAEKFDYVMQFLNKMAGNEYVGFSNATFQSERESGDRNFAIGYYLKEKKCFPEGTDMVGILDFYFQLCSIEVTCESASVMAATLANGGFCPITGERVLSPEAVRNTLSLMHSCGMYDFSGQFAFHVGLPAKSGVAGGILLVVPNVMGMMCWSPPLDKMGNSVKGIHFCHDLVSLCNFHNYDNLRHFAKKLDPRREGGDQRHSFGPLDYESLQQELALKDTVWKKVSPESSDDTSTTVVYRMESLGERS
Protocol: Next the effect of the substitution of an alanine for a serine at amino acid 103 on the enzymatic activity of GAC was examined, as well as its sensitivity to the small molecule, 968. […] Following transfection, the cells were treated for 48 hours with 968 (10 μM) and then harvested. The different GAC proteins were then isolated by immunoprecipitation and assayed for their glutaminase activity in the absence (i.e., basal activity) and presence of phosphate (FIG. 24). […] Initially, the high glutaminase activity of the GAC (S103A) mutant was surprising as it had been predicted that this phospho-defective mutant should have a reduced enzymatic activity. […] When this hydrogen bond is broken, either by mutating the serine to an alanine or upon the phosphorylation of this serine residue, GAC transitions to an active conformation. […] Thus, Serine 103 plays a critical role in the regulation of the glutaminase activity of GAC.

normal NIH 3T3 cells = experiment: Growth and morphology of control NIH 3T3 cells; type: cell-based, mouse; settings: 10% calf serum; 10 μM (growth), 5 μM (morphology)
Protocol: FIGS. 1A-E illustrate that the small molecule 968 inhibits cellular transformation. […] Cells were fixed and stained with crystal violet for counting of foci. Right: 968 was serially diluted (10, 5, 2.5, and 1.25 μM) and evaluated for its ability to inhibit focus formation. […] After 6 days, the cells were counted. 100% represents the number of Dbl-transformed cells counted in the absence of 968 (27.5×10^4 cells). Data represent the average of 3 experiments (±s.d.). […] At the indicated times, the cells were counted. Data represent the average of 3 experiments (±s.d.).

Structure (SMILES): CN(C)c1ccc(C2Nc3ccc4ccccc4c3C3=C2C(=O)CC(C)(C)C3)cc1Br (centres unmarked) [Compound 968, 5-[3-bromo-4-(dimethylamino)phenyl]-2,2-dimethyl-2,3,5,6-tetrahydrobenzo[a]]
- glutaminase activity of GAC (S103A) (GAC (S103A)): not affected
- effect on growth or morphology of normal NIH 3T3 cells (normal NIH 3T3 cells): no significant effects
